Measured values taken from patent publication US20240189263A1, “DERIVATIZED C60 MOLECULES AND METHODS AND MATERIALS FOR USING DERIVATIZED C60 MOLECULES TO REDUCE RADIATION INJURY” (Mayo Foundation for Medical Education and Research, priority 2021, published 2024).

Columns and labels:
N2A cells = experiment: ROS by H2-DCFDA probe after proton irradiation, N2A; format: cell-based; details: pretreated 100 μM, TBHP 200 μM, 1 Gy proton, read 30 minutes post radiation
Excerpt: (§1) Cell lines were irradiated using pencil beam scanning (PBS) proton beams produced by IBA ProteusOne (Ion Beam Applications, Louvain-la-Neuve, Belgium). Single layer mono-energy 227 MeV pencil beams with uniform spacing of 0.25 cm between each spot were used to create a large field size with uniform dose distribution (±2%) that encompassed all sample wells containing the cells. A fixed source to surface distance (SSD) setup and gantry at 180 degrees was used to delivery 0.5, 1, 2, 4, and 6 Gray (Gy) dose of ionizing radiation to cells. The cells were place at an 8 cm depth, with a linear energy transfer (LET) of approximately 1.7 keV/μm, using solid water slabs as a buildup. […] The monitor units needed to deliver the intended dose were calculated using the measure dose/MU values.
(§2) Post radiation, 2′,7′-dichlorodihydrofluorescein diacetate (H2-DCFDA) probes were used to measure the level of reactive oxygen species (ROS) post-proton radiation (1 Gy, 230 MeV proton beam). […] A fluorescence microplate reader (SpectraMax M5, Molecular Devices Corporation, California, USA) was used to detect the generation of fluorescent DCF molecules with an excitation filter of 485 nm and an emission filter of 525 nm, with a 515 nm cutoff filter. […] Following irradiation, the cells were transported back for plate reading, 30 minutes post radiation.

NIH3T3 cells [1] = experiment: ROS by H2-DCFDA probe after proton irradiation, NIH3T3; format: cell-based; details: NIH3T3, pretreated 100 μM, TBHP 200 μM, 1 Gy proton, read 30 minutes post radiation
Excerpt: as §1, §2

[2] = test system: Panc02 tumor on the thigh of C57B16 mice; experiment: Syngeneic mouse model of pancreatic cancer, tumor volume under radiation; format: in vivo; details: 700 mg/kg per os once 12 hours before first radiation, with capecitabine 350 mg/kg 5 days, 2 Gy x 5 days, 20 days
Procedure: A syngeneic mouse model of pancreatic cancer (Panc02 growing on the thigh of C57B16 mice) was used to evaluate the effects of C60-ser on in vivo tumors. Mice were treated with 350 mg/kg capecitabine via per os gavage for 5 days 1 hour before radiation (RT+Cape), or capecitabine treatment with a single dose of 700 mg/kg C60-ser via per os gavage once 12 hours before the first dose of radiation (RT+Cape+c60 Ser). Mice were exposed to 2 Gy of radiation (RT) once per day for 5 days. A control group (Cont) without treatment also was exposure to the radiation treatment. Normalized tumor volumes were monitored for 20 days.

HUVEC cells = experiment: MTS cytotoxicity assay, HUVEC; format: cell-based; details: 1-1000 μM, 24, 48 or 72 hours
Procedure: (§3) Cytotoxicity of C60-ser was determined by an MTS (3-(4,5-dimethylthiazol-2-yl)-5-(3-carboxymethoxyphenyl)-2-(4-sulfophenyl)-2H-tetrazolim) colorimetric assay on four different cell lines, each representing a different cell type. Specifically, HepG2 (liver epithelium), HUVEC (endothelial cells), N2A (neuroblastoma cells representative of normal neurons), and NIH3T3 (fibroblasts) were analyzed. The cells were seed in a 96-well tissue culture polystyrene plate at different seeding concentrations based on the cell's doubling time. HUVEC cells were seeded at 10,000 cells/well (24 hour experiments), 8,000 cells/well (48 hour experiments), and 5,000 cells/well (72 hour experiments), and incubated for 24 hours in a humidified atmosphere with 5% C02 at 37° C. […] After incubation with MTS, the optical density (OD) of the resulting formazan solution was read at 490 nm using a microplate reader (Biotek Cytation 5 cell Imaging Multi-Mode reader, Winooski, VT). The cell viability was obtained by normalizing the absorbance of the sample with that of the control wells containing untreated cells. The cell viability was expressed as a percentage, assigning the viability of non-treated cells as 100%. […]

HepG2 cells = experiment: Seahorse mitochondrial respiration (oxygen consumption rate), HepG2; format: cell-based; details: HepG2, pretreated 2 hours before 1 Gy 230 MeV proton
Procedure: The oxygen consumption rates were assessed in N2A, HUVEC, NIH3T3, and HepG2 cell lines with a Seahorse XFe96 (Agilent Technologies, Santa Clara, CA, USA). Cells were treated with 0 and 1 Gy of 230 MeV proton irradiation. The control plates were run at about the same time post plating. Each cell line was optimized prior to these experiments, and data was presented normalized to cell number plated. The standard mitochondrial stress test was performed using serial injections of oligomycin (1.5 μM), carbonyl cyanide p-(trifluoromethoxy)phenylhydrazone (FCCP, 1 μM), and rotenone/antimycin A mixture (0.5 μM). After injection of oligomycin, which inhibits ATP synthase (complex V), there was a drop in electron flow through the electron transport chain (ETC) and a resultant drop in oxygen consumption rate (OCR) of the cells. Injection of FCCP collapsed the proton gradient and allowed for uninhibited electron flow through the ETC supercomplexes. […] The reserve respiratory capacity was calculated by subtracting the basal respiratory capacity from the maximal respiratory capacity.

NIH3T3 cells [3] = experiment: MTS cytotoxicity assay, NIH3T3; format: cell-based
Procedure: as §3

In the case of `O=C(NC(CO)CO)C1(C(=O)NC(CO)CO)C23c4c5c6c7c8c4-c4c2c2c9c%10c4C4%11c%12c-%10c%10c%13c%14c%12-c%12c(c-7c7c%15c%12C%14%12C(C(=O)NC(CO)CO)(C(=O)NC(CO)CO)C%12%14c%12c%16c%17c%18c(c%12-%15)C7%12C(C(=O)NC(CO)CO)(C(=O)NC(CO)CO)C6%12c6c-5c5c7c(c6-%18)C%176C(C(=O)NC(CO)CO)(C(=O)NC(CO)CO)C6%12c6c-7c(c-2c2c6-c6c%12c-%16c%14c-%13c6C%106C(C(=O)NC(CO)CO)(C(=O)NC(CO)CO)C926)C513)C84C%11(C(=O)NC(CO)CO)C(=O)NC(CO)CO` (stereo not shown) [C60-ser, C60-serinol], the “ROS (H2-DCFDA fluorescence)” value (N2A cells) is reported as “significant reduction in ROS”, the “ROS (H2-DCFDA fluorescence)” value (NIH3T3 cells [1]) is reported as “significant reduction in ROS” and the “normalized tumor volume vs capecitabine alone” value [2] is reported as “not significantly different in normalized tumor volume”. The percent viability (HUVEC cells) was “did not result in a significant decrease in viability”, the “radiation-induced increase in respiratory capacity” value (HepG2 cells) was “dampened and, in some cases, reduced to normal or slightly below normal levels” and the “percent viability at the highest dose” value (NIH3T3 cells [3]; NIH3T3, 1000 μM) was “downward trend”. For the same compound, the percent viability (NIH3T3 cells [3]; NIH3T3, 1-1000 μM, 24, 48 or 72 hours) was “did not result in a significant decrease in viability”.
